Where two headings read alike, the source gives them in different places.
What was measured:
HCC70 = assay: Panel A proliferation assay (CellTiter-Glo); HER2 Loss 1 copy, KRAS WT, PIK3CA WT; assay type: cell-based, human; conditions: for IC50: Homo sapiens
Experimental: (§1) A total of 15 breast cancer cell lines were used in this study. These cells were cultured in RPMI-1640 and supplemented with 5% or 10% fetal bovine serum, 2 mM GlutaMAX™ and 1 mM sodium pyruvate, or in growth medium recommended by the suppliers [American Type Culture Collection, Manassas, Va., USA; Developmental Therapeutics Program, National Cancer Institute, Bethesda, Md., USA; German Collection of Microorganisms and Cell Cultures (DSMZ), Braunschweig, Germany; European Collection of Cell Cultures (ECACC), Porton Down, UK]. Cells of each line were seeded into a 384-well microtiter plate at two cell densities. Low density ranges were 300-1800 cells/well, and a high density was 600 to 3600 cells/well). The plating density was determined by the rate of proliferation of the cell line in the absence of any inhibitor and varied amongst cell lines. High plating densities were double that of low density. Each cell density was plated in triplicate. In total there were 30 wells to be treated with increasing concentrations of Compound B for each cell line at each density. In addition, there were 24 wells of dimethyl sulfoxide (DMSO)-treated controls at each density. After seeding, the cells were incubated at 37° C. in 5% CO2 for 24 hours. Subsequently, Compound B was added to each cell line with 10 concentrations. The dosing solution of Compound B was first prepared in DMSO at a master stock concentration of 10 mM. 1:3 serial dilutions were then made of the stock solution to give a range of working stock concentrations; 10.00 mM, 3.164 mM, 1.001 mM, 316.9 μM, 100.3 μM, 31.74 μM, 10.04 μM, 3.178 μM, 1.006 μM and 318.3 nM. The working stock concentrations of Compound B were then dispensed into the seeded cancer cell lines using a Biomek FX liquid handler to give final treatment concentrations of 0.1% of the stock concentration. A similar volume of DMSO without Compound B was dispensed into the 24 control wells of each seeding density at a concentration of 0.1%. Also, a zero-time plate prepared with a similar cell seeding was read for each cell line at each seeding density immediately after the addition of the DMSO control. After a 72 h incubation, an equal volume of the CellTiter-Glo (CellTiter-Glo Luminescent Cell Viability Assay, Promega, Madison, Wis.) to that of the cell culture medium was added into each well of the plate. After the contents were mixed to induce cell lysis and stabilization, cell luminescence was recorded using a SpectraMax M5^e (Molecular Devices, Sunnyvale, Calif., USA)
(§2) The luminescence of Compound B treated cells was compared relative to the average of the 24 DMSO-treated control wells at each cell density for every concentration of Compound B for all triplicate wells. The percent intensity values were used in model 205 of XLfit in Microsoft Excel to calculate gIC50s for the low and high seeding density (a 4 parameter logistical fit). Specifically, the midpoint of the growth window (the gIC50) falls half way between the number of cells at the time of compound addition (T=0) and the growth of control cells treated with DMSO. The gIC50 value serves as a metric for measuring the inhibition of proliferation in cancer cells. […] Finally, where data quality permits, the Ymin values (defined as the maximum growth inhibition relative to the cell density at Time-zero) were calculated as a measure of cytotoxicity where data were of reasonable quality.

[1] = system: panel of 15 human breast cell lines; assay: Breast Cancer Cell Line Panel A proliferation assay, panel summary; assay type: cell-based
Experimental: as §1, with “The dosing solution of Compound B was first prepared in DMSO at a master stock concentration of 10 mM. 1:3 serial dilutions were then made of the stock solution to give a range of working stock concentrations; 10.00 mM, 3.164 mM, 1.001 mM, 316.9 μM, 100.3 μM, 31.74 μM, 10.04 μM, 3.178 μM, 1.006 μM and 318.3 nM. The working stock concentrations of Compound B were then dispensed into the seeded cancer cell lines using a Biomek FX liquid handler to give final treatment concentrations of 0.1% of the stock concentration. A similar volume of DMSO without Compound B was dispensed into the 24 control wells of each seeding density at a concentration of 0.1%.” left out, “After a 72 h incubation, an equal volume of the CellTiter-Glo (CellTiter-Glo Luminescent Cell Viability Assay, Promega, Madison, Wis.) to that of the cell culture medium was added into each well of the plate.” left out
The luminescence of Compound B treated cells was compared relative to the average of the 24 DMSO-treated control wells at each cell density for every concentration of Compound B for all triplicate wells. […] Finally, where data quality permits, the Ymin values (defined as the maximum growth inhibition relative to the cell density at Time-zero) were calculated as a measure of cytotoxicity where data were of reasonable quality.

BT-20 = assay: Panel A proliferation assay (CellTiter-Glo); HER2 2 copies, KRAS WT, PIK3CA p.P539R; assay type: cell-based, human; conditions: for IC50: Homo sapiens
Experimental: as §1, §2

SK-BR-3 = assay: Panel A proliferation assay (CellTiter-Glo); HER2 Gain ≧5, KRAS WT, PIK3CA WT; assay type: cell-based, human; conditions: for IC50: Homo sapiens
Experimental: as §1
(§3) The luminescence of Compound B treated cells was compared relative to the average of the 24 DMSO-treated control wells at each cell density for every concentration of Compound B for all triplicate wells. The percent intensity values were used in model 205 of XLfit in Microsoft Excel to calculate gIC50s for the low and high seeding density (a 4 parameter logistical fit). Specifically, the midpoint of the growth window (the gIC50) falls half way between the number of cells at the time of compound addition (T=0) and the growth of control cells treated with DMSO. The gIC50 value serves as a metric for measuring the inhibition of proliferation in cancer cells. The curves for each seeding density for each cell line were manually inspected for both data quality and appropriateness of curve fitting. Where the starting data were poor the curve and subsequent gIC50s were excluded from further analysis. Cell line seedings were considered of poor quality when the r^2 value of the fitted curve was <0.75. Finally, where data quality permits, the Ymin values (defined as the maximum growth inhibition relative to the cell density at Time-zero) were calculated as a measure of cytotoxicity where data were of reasonable quality.

UACC-812 = assay: as above; assay type: cell-based, human; conditions: for IC50: Homo sapiens
Experimental: as §1, §3

[2] = system: panel of 51 human breast cell lines; assay: Breast Cell Line Panel B proliferation assay, panel summary; assay type: cell-based; conditions: for IC50: 51 human breast cell lines
Experimental: From the stock concentration, 8 serial dilutions (1:5) were made with DMSO.
Generally, about 5 μl was added to the 100 μl of cell culture during the treatment, and each dose was replicated in three wells.
Day −1: Plate cells in 100 μl volume in 96 well plate. • Note: Cell number seeded adjusted for growth characteristics, so that at time of assay for proliferation following three-day drug treatment, the control wells should still be in log-growth phase (sub-confluent). Day 0: Drug added to plate for treatment. • A time 0 plate was processed for the proliferation assay to establish a baseline reading at time when drug was added.
LBNL are following the protocols set up by the NCI/NIH DTP Human Tumor Cell Line Screen Process (http://dtp.nci.nih.gov/branches/btb/ivclsp.html) and summarized below.
[(Ti−Tz)/(C−Tz)]×100 for concentrations for which Ti>/=Tz
[(Ti−Tz)/Tz]×100 for concentrations for which Ti<Tz. • C: control growth (vehicle control growth) • Tz: reading at time 0 • Ti: test growth in the presence of drug at the nine concentration levels gIC50: Growth inhibition of 50% is calculated from
[(Ti−Tz)/(C−Tz)]×100=50, • which is the drug concentration resulting in a 50% reduction in the net growth in control cells during the drug incubation. TGI: Total growth inhibition is calculated from
Ti=Tz. • The drug concentration resulting in total growth inhibition (down to the ‘time 0’ baseline). LC50: Net loss of cell growth at 50% is calculated from
[(Ti−Tz)/Tz]×100=−50. • The concentration of drug resulting in a 50% reduction in the cell number at the end of the drug treatment as compared to that at the beginning (time 0) indicating a net loss of cells following treatment.
Values are calculated for each of these three parameters if the level of activity is reached; however, if the effect is not reached or is exceeded, the value for that parameter is expressed as greater or less than the maximum or minimum concentration tested.

COc1ncc(-c2ccc3nccc(-c4ccnnc4)c3c2)cc1NS(=O)(=O)c1ccc(F)cc1F [Compound B, 2,4-difluoro-N-{2-(methyloxy)-5-[4-(4-pyridazinyl)-6-quinolinyl]-3-pyridinyl}benzenesulfonamide]
High Density Y-Min (HCC70; HCC70, high density, % of cells at T = 0): 8.7%
Low Density Y-Min (HCC70; HCC70, low density, % of cells at T = 0): 9.6%
IC50 (HCC70; HCC70, high seeding density, 72 h, read-out: High Density gIC50): 4.8 nM
IC50 (HCC70; HCC70, low seeding density, 72 h, read-out: Low Density gIC50): 4.6 nM
IC50 (HCC70; HCC70, mean of low and high density, read-out: Mean gIC50): 4.7 nM
IC50 ([1]; 15 human breast cell lines, read-out: overall median gIC50): 3.2 nM
tumor cell lines with gIC50>20 nM ([1]; number of lines / lines tested): 3/15
tumor cell lines with gIC50s<3 nM ([1]; number of lines / lines tested): 7/15
High Density Y-Min (BT-20; BT-20, high density, % of cells at T = 0): 20.7%
Low Density Y-Min (BT-20; BT-20, low density, % of cells at T = 0): 10.7%
IC50 (BT-20; BT-20, high seeding density, 72 h, read-out: High Density gIC50): 7.8 nM
IC50 (BT-20; BT-20, low seeding density, 72 h, read-out: Low Density gIC50): 6.3 nM
IC50 (BT-20; BT-20, mean of low and high density, read-out: Mean gIC50): 7.05 nM
IC50 (SK-BR-3; SK-BR-3, high seeding density, 72 h, read-out: High Density gIC50): 4.2 nM
IC50 (SK-BR-3; SK-BR-3, low seeding density, 72 h, read-out: Low Density gIC50): 2.9 nM
IC50 (SK-BR-3; SK-BR-3, mean of low and high density, read-out: Mean gIC50): 3.55 nM
High Density Y-Min (SK-BR-3; SK-BR-3, high density, % of cells at T = 0): 54.5%
Low Density Y-Min (SK-BR-3; SK-BR-3, low density, % of cells at T = 0): 52.3%
IC50 (UACC-812; UACC-812, high seeding density, 72 h, read-out: High Density gIC50): 0.1 nM
IC50 (UACC-812; UACC-812, low seeding density, 72 h, read-out: Low Density gIC50): 0.1 nM
IC50 (UACC-812; UACC-812, mean of low and high density, read-out: Mean gIC50): 0.1 nM
High Density Y-Min (UACC-812; UACC-812, high density, % of cells at T = 0): 12.6%
Low Density Y-Min (UACC-812; UACC-812, low density, % of cells at T = 0): 12.1%
IC50 ([2]; read-out: average gIC50): 28.9 nM
IC50 ([2]; read-out: gIC50s across the panel (range)): 1.1 to 398 nM
IC50 ([2]; read-out: overall median gIC50): 10.4 nM
tumor cell lines with gIC50>30 nM ([2]; number of lines / lines tested): 16/51
tumor cell lines with gIC50s<3 nM ([2]; number of lines / lines tested): 7/51

— patent publication US20130317037A1, “METHOD OF ADMINISTRATION AND TREATMENT” (GlaxoSmithKline Intellectual Property Development Limited, priority 2010, published 2013)
